# Experimental data reported in US9115142B2, “Heterocycle-substituted piperazino-dihydrothienopyrimidines” (Boehringer Ingelheim International GmbH, priority 2007, dated 2015).
# Target: PDE4B (Homo sapiens, UniProt Q07343)
# Assay: Scintillation Proximity Assay (SPA) of PDE4B enzymatic activity ([H3]-cAMP cleavage)
# Assay type: biochemical
# Conditions: test substance 1 μM; one-hour incubation with [H3]-cAMP and PDE4B at 30° C.
# Description: The Scintillation Proximity Assay (SPA) (GE Healthcare, No. TRKQ7090) was carried out by using the different affinities of cyclic 3″-5″-adenosinemonophosphate (cAMP, low affinity) and linear 5″-adenosinemonophosphate (AMP, high affinity) for yttrium silicate scintillator beads. The cAMP specific phosphodiesterase (PDE) PDE4B cleaves the 3″-phosphoester bond of tritium-labelled [H3]-cAMP to form [H3]-5″-AMP. This [H3]-AMP accumulates on the scintillator beads because of its higher affinity for them and causes scintillation events (flashes of light) which are measured in a Wallac Microbeta Scintillation Counter.
# The experiment starts with a one-hour incubation of [H3]-cAMP with the PDE4B enzyme in assay buffer at 30° C., in each case once with the Example substance to be tested (in a concentration of 1 μM) and once without the Example substance to be tested.
# After this incubation, the reaction is stopped by the addition of the beads. The beads have an opportunity to settle in the next 45 minutes, then the measurement is carried out in the Scintillation Counter. If the substance is capable of inhibiting the enzymatic activity of the PDE4B, less [H3]-AMP is produced during the incubation phase and fewer scintillation events can be measured.
# Chain of PDE4B (Q07343 whole entry, species assumed): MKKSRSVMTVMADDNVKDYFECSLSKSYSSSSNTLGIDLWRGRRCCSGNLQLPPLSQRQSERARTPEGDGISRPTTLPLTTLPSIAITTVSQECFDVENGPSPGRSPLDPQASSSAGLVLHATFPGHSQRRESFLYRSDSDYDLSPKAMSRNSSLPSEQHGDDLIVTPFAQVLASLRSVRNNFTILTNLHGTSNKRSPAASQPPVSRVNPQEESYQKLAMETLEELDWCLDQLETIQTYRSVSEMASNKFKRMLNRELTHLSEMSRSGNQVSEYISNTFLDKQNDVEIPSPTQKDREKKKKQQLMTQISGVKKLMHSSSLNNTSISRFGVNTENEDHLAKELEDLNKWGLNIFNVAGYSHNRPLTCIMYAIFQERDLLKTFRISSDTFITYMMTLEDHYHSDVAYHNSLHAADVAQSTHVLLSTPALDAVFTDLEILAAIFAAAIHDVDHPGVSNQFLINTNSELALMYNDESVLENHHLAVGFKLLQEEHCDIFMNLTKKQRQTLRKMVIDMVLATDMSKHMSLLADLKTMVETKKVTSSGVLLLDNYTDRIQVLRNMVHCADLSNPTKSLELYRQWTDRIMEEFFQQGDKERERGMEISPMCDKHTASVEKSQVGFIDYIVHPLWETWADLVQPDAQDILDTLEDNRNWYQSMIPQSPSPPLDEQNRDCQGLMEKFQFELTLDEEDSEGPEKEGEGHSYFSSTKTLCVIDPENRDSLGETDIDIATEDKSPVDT
row,inhibition at 1 µM [%],Structure (SMILES)
1,94,"[O-][S+]1CCc2nc(N3CCN(c4nccs4)CC3)nc(Nc3cccc(F)c3)c21 (stereo not drawn) [Example 1, (3-fluorophenyl)-[5-oxo-2-(4-thiazol-2-yl-piperazin-1-yl)-6,7-dihydro-5H-5λ^4-thieno[3,2-d]pyrimidin-4-yl]-amine]"
2,90,"CC(C)[C@H](CO)Nc1nc(N2CCN(c3nccs3)CC2)nc2c1[S+]([O-])CC2 (stereo partly drawn) [Example 2, (R)-3-methyl-2-[5-oxo-2-(4-thiazol-2-yl-piperazin-1-yl)-6,7-dihydro-5H-5λ^4-thieno[3,2-d]pyrimidin-4-ylamino]-butan-1-ol]"
3,95,"[O-][S+]1CCc2nc(N3CCN(c4nc5ccccc5o4)CC3)nc(Nc3cccc(F)c3)c21 (stereo not drawn) [Example 3, [2-(4-benzoxazol-2-yl-piperazin-1-yl)-5-oxo-6,7-dihydro-5H-5λ^4-thieno[3,2-d]pyrimidin-4-yl]-(3-fluorophenyl)-amine]"
4,96,"[O-][S+]1CCc2nc(N3CCN(c4nc5ccccc5o4)CC3)nc(NC3CCOCC3)c21 (stereo not drawn) [Example 5, [2-(4-benzoxazol-2-yl-piperazin-1-yl)-5-oxo-6,7-dihydro-5H-5λ^4-thieno[3,2-d]pyrimidin-4-yl]-(tetrahydropyran-4-yl)-amine]"
5,93,"CC(C)[C@H](CO)Nc1nc(N2CCN(c3ccc(Cl)nn3)CC2)nc2c1[S+]([O-])CC2 (stereo partly drawn) [Example 6, (R)-2-{2-[4-(6-chlorpyridazin-3-yl)-piperazin-1-yl]-5-oxo-6,7-dihydro-5H-5λ^4-thieno[3,2-d]pyrimidin-4-ylamino}-3-methylbutan-1-ol]"
6,95,"[O-][S+]1CCc2nc(N3CCN(c4ccc(Cl)nn4)CC3)nc(Nc3cccc(F)c3)c21 (stereo not drawn) [Example 7, {2-[4-(6-chlorpyridazin-3-yl)-piperazin-1-yl]-5-oxo-6,7-dihydro-5H-5λ^4-thieno[3,2-d]pyrimidin-4-yl}-(3-fluorophenyl)-amine]"
7,94,"CC(C)[C@H](CO)Nc1nc(N2CCN(c3nc4ccccc4o3)CC2)nc2c1[S+]([O-])CC2 (stereo partly drawn) [Example 10, (R)-2-[2-(4-benzoxazol-2-yl-piperazin-1-yl)-5-oxo-6,7-dihydro-5H-5λ^4-thieno[3,2-d]pyrimidin-4-ylamino]-3-methylbutan-1-ol]"
8,95,"[O-][S+]1CCc2nc(N3CCN(c4ccc(Cl)cn4)CC3)nc(NC3(CO)CC3)c21 (stereo not drawn) [Example 13, (1-{2-[4-(5-Chloropyridin-2-yl)-piperazin-1-yl]-5-oxo-6,7-dihydro-5H-5λ^4-thieno[3,2-d]pyrimidin-4-ylamino}-cyclopropyl)-methanol]"
9,95,"[O-][S+]1CCc2nc(N3CCN(c4ccc(Cl)cn4)CC3)nc(NC3CCOCC3)c21 (stereo not drawn) [Example 14, {2-[4-(5-chloropyridin-2-yl)-piperazin-1-yl]-5-oxo-6,7-dihydro-5H-5λ^4-thieno[3,2-d]pyrimidin-4-yl}-(tetrahydropyran-4-yl)-amine]"
10,97,"CN(C)c1nnccc1N1CCN(c2nc3c(c(Nc4cccc(F)c4)n2)[S+]([O-])CC3)CC1 (stereo not drawn) [Example 15, {2-[4-(3-dimethylaminopyridazin-4-yl)-piperazin-1-yl]-5-oxo-6,7-dihydro-5H-5λ^4-thieno[3,2-d]pyrimidin-4-yl}-(3-fluorophenyl)-amine]"
11,95,"[O-][S+]1CCc2nc(N3CCN(c4cc(Cl)nnc4O)CC3)nc(Nc3cccc(F)c3)c21 (stereo not drawn) [Example 16, 6-chloro-4-{4-[4-(3-fluorophenylamino)-5-oxo-6,7-dihydro-5H-5λ^4-thieno[3,2-d]pyrimidin-2-yl]-piperazin-1-yl}-pyridazin-3-ol]"
12,97,"CCOCCOc1ccc(N2CCN(c3nc4c(c(Nc5cccc(F)c5)n3)[S+]([O-])CC4)CC2)nn1 (stereo not drawn) [Example 17, (2-{4-[6-(2-ethoxyethoxy)-pyridazin-3-yl]-piperazin-1-yl}-5-oxo-6,7-dihydro-5H-5λ^4-thieno[3,2-d]pyrimidin-4-yl)-(3-fluorophenyl)-amine]"
